Test system: P12-Ichikawa
Experiment: cell viability relative to DMSO control; higher = less cytotoxic
Conditions: 48 h
Outline: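 Viability, reported as a per-plate percentage of DMSO wells with cell-free wells as background, came from CellTiter-Glo One luminescence. Reading took place after 48 h at 37°C. Before that, NOMO1 or SEM (500 cells/well) or P12-Ichikawa (1000 cells/well) leukemia cells, adapted for at least four passages in each medium, were seeded in 1536-well plates (5 μl) and pin-dosed with library compounds in DMSO, 47 μM to 0.79 nM over 11 threefold points.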

[1] = HPLM + 10% dialyzed FBS, 0.000781 µM
[2] = HPLM + 10% dialyzed FBS, 0.00234 µM
[3] = HPLM + 10% dialyzed FBS, 0.00702 µM
[4] = HPLM + 10% dialyzed FBS, 0.0211 µM
[5] = HPLM + 10% dialyzed FBS, 0.0632 µM
[6] = HPLM + 10% dialyzed FBS, 0.19 µM
[7] = HPLM + 10% dialyzed FBS, 0.569 µM
[8] = HPLM + 10% dialyzed FBS, 1.71 µM
[9] = HPLM + 10% dialyzed FBS, 5.12 µM
[10] = HPLM + 10% dialyzed FBS, 15.4 µM
[11] = HPLM + 10% dialyzed FBS, 46.1 µM
[12] = RPMI 5 mM glucose + 10% FBS, 0.000781 µM
[13] = RPMI 5 mM glucose + 10% FBS, 0.00234 µM
[14] = RPMI 5 mM glucose + 10% FBS, 0.00702 µM
[15] = RPMI 5 mM glucose + 10% FBS, 0.0211 µM
[16] = RPMI 5 mM glucose + 10% FBS, 0.0632 µM
[17] = RPMI 5 mM glucose + 10% FBS, 0.19 µM
[18] = RPMI 5 mM glucose + 10% FBS, 0.569 µM
[19] = RPMI 5 mM glucose + 10% FBS, 1.71 µM
[20] = RPMI 5 mM glucose + 10% FBS, 5.12 µM
[21] = RPMI 5 mM glucose + 10% FBS, 15.4 µM
[22] = RPMI 5 mM glucose + 10% FBS, 46.1 µM
[23] = RPMI 5 mM glucose + 10% dialyzed FBS, 0.000781 µM
[24] = RPMI 5 mM glucose + 10% dialyzed FBS, 0.00234 µM
[25] = RPMI 5 mM glucose + 10% dialyzed FBS, 0.00702 µM
[26] = RPMI 5 mM glucose + 10% dialyzed FBS, 0.0211 µM
[27] = RPMI 5 mM glucose + 10% dialyzed FBS, 0.0632 µM
[28] = RPMI 5 mM glucose + 10% dialyzed FBS, 0.19 µM
[29] = RPMI 5 mM glucose + 10% dialyzed FBS, 0.569 µM
[30] = RPMI 5 mM glucose + 10% dialyzed FBS, 1.71 µM
[31] = RPMI 5 mM glucose + 10% dialyzed FBS, 5.12 µM
[32] = RPMI 5 mM glucose + 10% dialyzed FBS, 15.4 µM
[33] = RPMI 5 mM glucose + 10% dialyzed FBS, 46.1 µM

Compound	cell viability [1] [%]	cell viability [2] [%]	cell viability [3] [%]	cell viability [4] [%]	cell viability [5] [%]	cell viability [6] [%]	cell viability [7] [%]	cell viability [8] [%]	cell viability [9] [%]	cell viability [10] [%]	cell viability [11] [%]	cell viability [12] [%]	cell viability [13] [%]	cell viability [14] [%]	cell viability [15] [%]	cell viability [16] [%]	cell viability [17] [%]	cell viability [18] [%]	cell viability [19] [%]	cell viability [20] [%]	cell viability [21] [%]	cell viability [22] [%]	cell viability [23] [%]	cell viability [24] [%]	cell viability [25] [%]	cell viability [26] [%]	cell viability [27] [%]	cell viability [28] [%]	cell viability [29] [%]	cell viability [30] [%]	cell viability [31] [%]	cell viability [32] [%]	cell viability [33] [%]
CCN1\C=C(C(O)=O)/C(=O)C2=C1C(=C(N3CCNC(C)C3)C(=C2)F)F (configuration not stated)	96.7	107	111	125	101	109	119	115	124	118	110	87	94	110	110	109	110	114	113	107	124	116	104	112	110	113	107	116	117	113	124	120	112
O=C(CCCN1CCC(O)(c2ccc(Cl)cc2)CC1)c1ccc(F)cc1	105	107	109	116	119	123	111	111	119	127	107	106	112	111	124	124	132	116	126	124	131	95.9	108	114	117	111	116	131	115	115	119	112	99.8
CC(C)[C@H]1C(=O)N[C@H](CO)Cc2c[nH]c3cccc(c23)N1C	87.3	96	98.3	108	110	99.2	92.2	88.1	74.2	83.9	88.8	91.5	98.8	104	105	110	98.9	76.9	75.4	63.7	65.4	74.5	87	99.7	97.9	101	107	90.3	79.1	70.6	58	64.5	65.3
COc1cccc(OC)c1-c1cc(C(=O)NC2(C(=O)O)C3CC4CC(C3)CC2C4)nn1-c1ccnc2cc(Cl)ccc12 (configuration not stated)	115	118	112	116	114	109	114	113	101	94.7	86.1	113	119	126	118	119	99.4	126	110	115	112	97.5	113	118	119	114	117	110	101	110	107	108	99.9
